Assay results reported in article PMC10387993, “New pyrimidine-N-β-D-glucosides: synthesis, biological evaluation, and molecular docking investigations” (Turkish Journal of Chemistry, 2023).
Converted amounts (≈) assume the structure as drawn. Where two headings read alike, the source gives them in different places. Blank lines part the entries; values can stand above or below the compound they belong to.

Columns and labels:
Type in all cases: cell-based
HeLa = experiment: cells; details: Homo sapiens; for GI50 / IC50 / IC (total growth inhibition): MTT; for IC50: read-out: IC50; for IC (total growth inhibition): read-out: TGI; for LC50 (concentration causing 50% net cell loss): read-out: LC50
In short: (§1)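 In this MTT proliferation screen, formazan formed over 4 h was read at 560 nm against a 690 nm reference. Each line was tested at least three times, and the IC50 was taken as the concentration inhibiting half of the cells.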

Hep3B = experiment: cells; details: Homo sapiens; for GI50 / IC50 / IC (total growth inhibition): MTT; for IC50: read-out: IC50; for IC (total growth inhibition): read-out: TGI; for LC50 (concentration causing 50% net cell loss relative to time zero): read-out: LC50
In short: as §1

HT29 = experiment: cells; details: Homo sapiens; for LC50 (concentration giving 50% net cell loss relative to time zero): HT-29, read-out: LC50; for GI50 / IC50 / IC (total growth inhibition): HT-29, HT29, MTT; for IC50: read-out: IC50; for IC (total growth inhibition): read-out: TGI
In short: as §1

C6 (Rat brain glioma) = experiment: cells; details: Rattus norvegicus; for LC50 (concentration giving 50% net cell loss relative to time zero): read-out: LC50; for GI50 / IC50 / IC (total growth inhibition): C6, MTT; for IC50: read-out: IC50; for IC (total growth inhibition): read-out: TGI
In short: as §1

A549 = experiment: cells; details: Homo sapiens; for LC50 (concentration causing 50% net cell loss): A549, read-out: LC50; for GI50 / IC50 / IC (total growth inhibition): A549, MTT; for IC50: read-out: IC50; for IC (total growth inhibition): read-out: TGI
In short: as §1

MCF7 = experiment: cells; details: Homo sapiens; for LC50 (concentration causing 50% net cell loss relative to time zero): MCF7, read-out: LC50; for GI50 / IC50 / IC (total growth inhibition): MCF7, MTT; for IC50: read-out: IC50; for IC (total growth inhibition): read-out: TGI
In short: as §1

in vitro = details: human, LC50
In short: as §1

normal FL cells = experiment: cells; details: for GI50 / IC50 / IC (total growth inhibition): FL normal cells, MTT; for IC50: read-out: IC50; for IC (total growth inhibition): read-out: TGI
In short: as §1

[1] = LDH cytotoxic activity assay, C6; details: rat, C6 glioma cells; for cytotoxicity at 24 h, 25 μg/mL: C6, 25 μg/mL; for cytotoxicity at 24 h, 50 μg/mL: C6, 50 μg/mL; for cytotoxicity at 24 h, 75 μg/mL: C6, 75 μg/mL; for cytotoxicity at 24 h, 100 μg/mL: C6, 100 μg/mL
In short: (§2)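 Harvest ~80%-confluent cells with trypsin-EDTA, seed ~5 × 10^3 per well in DMEM or RPMI 1640 containing 10% FBS, then add compound at 25–100 μg/mL (four levels) for 24 h at 37 °C. Finish by reading LDH activity at 492–630 nm.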

[2] = LDH cytotoxic activity assay, HeLa; details: human, HeLa cells
In short: as §2

E. coli ESBL ATCC 35218 = experiment: Microdilution MIC assay; details: Escherichia coli, ATCC35218; E. coli ESBL ATCC 35218, 24 h at 35 °C
Experimental: (§3) MIC values of the compounds against bacterial strains were determined on the basis of a microwell dilution method. […] […]. Growth of microorganisms was determined visually after incubation for 24 h at 35 °C. The lowest concentration at which there was no visible growth (turbidity) was taken as the MIC.

[3] = system: P. aeruginosa AGME ATCC 27853; experiment: Microdilution MIC assay; details: Pseudomonas aeruginosa, ATCC27853; P. aeruginosa AGME ATCC 27853, 24 h at 35 °C
Experimental: as §3

E. coli ATCC 25922 = experiment: Microdilution MIC assay; details: Escherichia coli, ATCC25922; E. coli ATCC 25922, 24 h at 35 °C
Experimental: as §3

[4] = system: S. aureus MSSA ATCC 29213; experiment: Microdilution MIC assay; details: S. aureus MSSA ATCC 29213, 24 h at 35 °C
Experimental: as §3

[5] = system: S. aureus MRSA ATCC 46300; experiment: Microdilution MIC assay; details: Staphylococcus aureus; S. aureus MRSA ATCC 46300, 24 h at 35 °C; read-out: MIC
Experimental: as §3

S. mutans ATCC 35668 = experiment: Microdilution MIC assay; details: S. mutans ATCC 35668, 24 h at 35 °C
Experimental: as §3

[6] = LDH cytotoxic activity assay, HT29; details: human, HT29 cells; for cytotoxicity at 24 h, 25 μg/mL: HT29, 25 μg/mL; for cytotoxicity at 24 h, 50 μg/mL: HT29, 50 μg/mL; for cytotoxicity at 24 h, 75 μg/mL: HT29, 75 μg/mL; for cytotoxicity at 24 h, 100 μg/mL: HT29, 100 μg/mL
In short: as §2

[7] = Staphylococcus aureus, 24 h, read-out: MIC
[8] = Streptococcus mutans, ATCC35668, 24 h, read-out: MIC

GI50 (HeLa): 1.03 µg/mL (≈ 1.74 µM)
IC50 (HeLa): 2.29 µg/mL (≈ 3.86 µM)
GI50 (Hep3B): 6.15 µg/mL (≈ 10.4 µM)
IC50 (Hep3B): > 500 µg/mL
GI50 (HT29): 7.77 µg/mL (≈ 13.1 µM)
IC50 (HT29): > 500 µg/mL
GI50 (C6 (Rat brain glioma)): 2.23 µg/mL (≈ 3.76 µM)
IC50 (C6 (Rat brain glioma)): 30.1 µg/mL (≈ 50.9 µM)
GI50 (A549): 15.5 µg/mL (≈ 26.2 µM)
IC50 (A549): > 500 µg/mL
GI50 (MCF7): 1.79 µg/mL (≈ 3.02 µM)
IC50 (MCF7): > 500 µg/mL
MIC (E. coli ESBL ATCC 35218): > 1000 µg/mL
MIC [3]: > 1000 µg/mL
MIC (E. coli ATCC 25922): > 1000 µg/mL
MIC [4, 7]: 1000 µg/mL (≈ 1690 µM)
MIC [5]: 500 µg/mL (≈ 844 µM)
MIC (S. mutans ATCC 35668): 125 µg/mL (≈ 211 µM)
MIC (S. mutans ATCC 35668; [8]): 62.5 to 125 µg/mL (≈ 105 to 211 µM)
SMILES: CC(=O)OC[C@H]1O[C@@H](Nc2nc(-c3ccncc3)cc(-c3ccc(C)cc3)n2)[C@H](OC(C)=O)[C@@H](OC(C)=O)[C@@H]1OC(C)=O [Compound 18, 2,3,4,6-tetra-O-acetyl-N-[4-(4-methylphenyl)-6-pyridin-4-ylpyrimidin-2-yl]-β-D-glucopyranosylamine]
IC (total growth inhibition) (HeLa): 1.29 µg/mL
LC50 (concentration causing 50% net cell loss) (HeLa): 7.4 µg/mL (≈ 12.5 µM)
IC (total growth inhibition) (Hep3B): > 500 µg/mL
LC50 (concentration causing 50% net cell loss relative to time zero) (Hep3B): > 500 µg/mL
LC50 (concentration giving 50% net cell loss relative to time zero) (HT29): > 500 µg/mL
IC (total growth inhibition) (HT29): > 500 µg/mL
LC50 (concentration giving 50% net cell loss relative to time zero) (C6 (Rat brain glioma)): 29.8 µg/mL (≈ 50.2 µM)
IC (total growth inhibition) (C6 (Rat brain glioma)): 5.21 µg/mL
LC50 (concentration causing 50% net cell loss) (A549): > 500 µg/mL
IC (total growth inhibition) (A549): > 500 µg/mL
LC50 (concentration causing 50% net cell loss relative to time zero) (MCF7): > 500 µg/mL
IC (total growth inhibition) (MCF7): > 500 µg/mL
LC50 (concentration causing 50% net cell loss) (in vitro): > 500 µg/mL
GI50 (normal FL cells): 2.01 µg/mL (≈ 3.39 µM)
IC50 (normal FL cells): 7.46 µg/mL (≈ 12.6 µM)
IC (total growth inhibition) (normal FL cells): 7.58 µg/mL
LC50 (normal FL cells; human): 352.27 µg/mL (≈ 594 µM)
cytotoxicity at 24 h, 25 μg/mL [1]: 27.2%
cytotoxicity at 24 h, 50 μg/mL [1]: 44.1%
cytotoxicity at 24 h, 75 μg/mL [1]: 75.2%
cytotoxicity at 24 h, 100 μg/mL [1]: 86.5%
cytotoxicity at 24 h, 25 μg/mL [2]: 14.2%
cytotoxicity at 24 h, 50 μg/mL [2]: 39%
cytotoxicity at 24 h, 75 μg/mL [2]: 46.1%
cytotoxicity at 24 h, 100 μg/mL [2]: 54.2%
cytotoxicity at 24 h, 25 μg/mL [6]: 27.9%
cytotoxicity at 24 h, 50 μg/mL [6]: 45.5%
cytotoxicity at 24 h, 75 μg/mL [6]: 58.1%
cytotoxicity at 24 h, 100 μg/mL [6]: 82.8%

GI50 (HeLa): > 500 µg/mL
IC50 (HeLa): > 500 µg/mL
GI50 (Hep3B): 3.61 µg/mL (≈ 8.5 µM)
IC50 (Hep3B): 20.1 µg/mL (≈ 47.4 µM)
GI50 (HT29): 4.12 µg/mL (≈ 9.71 µM)
IC50 (HT29): 72.6 µg/mL (≈ 171 µM)
GI50 (C6 (Rat brain glioma)): 4.56 µg/mL (≈ 10.7 µM)
IC50 (C6 (Rat brain glioma)): 33.5 µg/mL (≈ 78.9 µM)
GI50 (A549): 23.7 µg/mL (≈ 55.8 µM)
IC50 (A549): > 500 µg/mL
GI50 (MCF7): 2.53 µg/mL (≈ 5.96 µM)
IC50 (MCF7): 66.8 µg/mL (≈ 157 µM)
MIC (E. coli ESBL ATCC 35218): > 1000 µg/mL
MIC [3]: > 1000 µg/mL
MIC (E. coli ATCC 25922): > 1000 µg/mL
MIC [4]: 125 µg/mL (≈ 294 µM)
MIC [4, 7]: 62.5 to 125 µg/mL (≈ 147 to 294 µM)
MIC [5]: 250 µg/mL (≈ 589 µM)
MIC (S. mutans ATCC 35668; [8]): 500 µg/mL (≈ 1180 µM)
SMILES: Cc1cccc(-c2cc(-c3cccnc3)nc(N[C@@H]3O[C@H](CO)[C@@H](O)[C@H](O)[C@H]3O)n2)c1 [Compound 5, N-[4-(3-methylphenyl)-6-pyridin-3-ylpyrimidin-2-yl]-β-D-glucopyranosylamine]
IC (total growth inhibition) (HeLa): > 500 µg/mL
LC50 (concentration causing 50% net cell loss) (HeLa): > 500 µg/mL
IC (total growth inhibition) (Hep3B): 20.5 µg/mL
LC50 (concentration causing 50% net cell loss relative to time zero) (Hep3B): > 500 µg/mL
LC50 (concentration giving 50% net cell loss relative to time zero) (HT29): > 500 µg/mL
IC (total growth inhibition) (HT29): 126 µg/mL
LC50 (concentration giving 50% net cell loss relative to time zero) (C6 (Rat brain glioma)): 249 µg/mL (≈ 587 µM)
IC (total growth inhibition) (C6 (Rat brain glioma)): 18.1 µg/mL
LC50 (concentration causing 50% net cell loss) (A549): > 500 µg/mL
IC (total growth inhibition) (A549): > 500 µg/mL
LC50 (concentration causing 50% net cell loss relative to time zero) (MCF7): > 500 µg/mL
IC (total growth inhibition) (MCF7): 75.7 µg/mL
LC50 (concentration causing 50% net cell loss) (in vitro): > 500 µg/mL
GI50 (normal FL cells): 4.16 µg/mL (≈ 9.8 µM)
IC50 (normal FL cells): 25.3 µg/mL (≈ 59.7 µM)
IC (total growth inhibition) (normal FL cells): 25.8 µg/mL
cytotoxicity at 24 h, 25 μg/mL [1]: 26.9%
cytotoxicity at 24 h, 50 μg/mL [1]: 44.1%
cytotoxicity at 24 h, 75 μg/mL [1]: 62.6%
cytotoxicity at 24 h, 100 μg/mL [1]: 87.1%
cytotoxicity at 24 h, 25 μg/mL [2]: 19.8%
cytotoxicity at 24 h, 50 μg/mL [2]: 35.3%
cytotoxicity at 24 h, 75 μg/mL [2]: 40.3%
cytotoxicity at 24 h, 100 μg/mL [2]: 54.3%
cytotoxicity at 24 h, 25 μg/mL [6]: 24.6%
cytotoxicity at 24 h, 50 μg/mL [6]: 39.4%
cytotoxicity at 24 h, 75 μg/mL [6]: 75.9%
cytotoxicity at 24 h, 100 μg/mL [6]: 96.8%
